Source: patent publication US11578084B2, “Condensed ring compounds having dopamine D3 receptor antagonistic effect” (Shionogi & Co., Ltd., priority 2018, dated 2023)
Read-outs that look alike come from different tables or passages of the source.

Experiments:
[1] = target: human recombinant dopamine D3 receptor (Homo sapiens (Human), UniProt P35462); test: Test of binding inhibition for dopamine D3 receptor ([3H]-Methylspiperone SPA); conditions: Jump-In HEK cell membranes, 2 nM [3H]-Methylspiperone, 120 min at 25° C.; read-out: hD3_Ki
Description: (§1) (Experimental Conditions)
Cell membranes: Jump-In HEK cell membranes expressing human recombinant dopamine D3 receptor (4 μg/well)
(§2) Non-specific ligand: (final concentration) 10 μM Butaclamol [(+)-Butaclamol Hydrochloride, D033, Sigma]
(§3) SPA beads solution: SPA beads [WGA PVT SPA Scintillation Beads, RPNQ0001 (500 mg), RPNQ0060 (2 g), PerkinElmer] (0.2 mg/well)
(§4) Incubation time and temperature: 120 min at 25° C.
(§5) Butaclamol or the compounds of the present invention were weighed and DMSO was added to make a 10 mM solution. This solution was diluted to each concentration.
[^3H]-Methylspiperone was weighed and the buffer solution was added to make a 6 nM solution.
(§6) SPA beads were weighed and stirred in water to make a 50 mg/mL solution. Using this solution, a mixture with the cell membranes was prepared.
(§7) Jump-In HEK Cell membranes (final reaction amount: 4 μg protein/well), the SPA beads solution (final reaction amount: 0.2 mg/well) and the buffer solution were mixed and the mixed solution was left still for 1 hour or more at 4° C. Then, 50 μL of the mixture was added to each well of the plate. In addition, 25 μL of 6 nM [^3H]-Methylspiperone (final concentration: 2 nM) was added to each well. […] Non-specific binding was calculated based on the radioactivity of [^3H]-Methylspiperone in the presence of 10 μM non-labeled Butaclamol. The total binding was calculated using the radioactivity of [H]-Methylspiperone in the absence of the compounds of the present invention (vehicle). The Ki values were calculated from dose-response curves.
(§8) Binding activities of the compounds of the present invention were calculated from the following Binding Inhibition Rate (%): Inhibition Rate (%)=[1−(c−a)/(b−a)]×100 • a: Average cpm of non-specific binding • b: Average cpm of total binding • c: Cpm in the presence of each test compound

[2] = target: human recombinant dopamine D2 receptor (Homo sapiens (Human), UniProt P14416); test: Test of binding inhibition for dopamine D2 receptor ([3H]-Methylspiperone SPA); conditions: Jump-In HEK cell membranes, read-out: hD2_Ki
Description: as §1
Cell membranes: Jump-In HEK cell membranes expressing human recombinant dopamine D2 receptor (2 μg/well)
as §2, §3, §4, §5, §6
as §7, with “amount: 2” for “amount: 4”, “were mixed,” for “were mixed”, “plate.” for “plate. In addition, 25 μL of 6 nM [^3H]-Methylspiperone (final concentration: 2 nM) was added to each well.”, “of [^3H]-Methylspiperone” for “of [H]-Methylspiperone”, “invention (Vehicle).” for “invention (vehicle).”
as §8

[3] = 1.2 nM [3H]-Methylspiperone, 120 min at 25° C.

Sequence of human recombinant dopamine D3 receptor (P35462 whole entry): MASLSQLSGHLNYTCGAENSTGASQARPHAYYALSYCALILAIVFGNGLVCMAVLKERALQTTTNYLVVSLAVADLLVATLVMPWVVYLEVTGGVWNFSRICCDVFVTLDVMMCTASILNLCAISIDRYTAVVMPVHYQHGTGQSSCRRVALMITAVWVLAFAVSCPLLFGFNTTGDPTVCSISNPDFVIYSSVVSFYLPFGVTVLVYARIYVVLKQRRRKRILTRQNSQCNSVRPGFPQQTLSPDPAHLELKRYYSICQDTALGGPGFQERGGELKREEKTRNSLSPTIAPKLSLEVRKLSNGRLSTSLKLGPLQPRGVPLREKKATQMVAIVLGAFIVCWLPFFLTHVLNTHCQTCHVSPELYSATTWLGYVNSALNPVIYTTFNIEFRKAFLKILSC
Sequence of human recombinant dopamine D2 receptor (P14416 whole entry): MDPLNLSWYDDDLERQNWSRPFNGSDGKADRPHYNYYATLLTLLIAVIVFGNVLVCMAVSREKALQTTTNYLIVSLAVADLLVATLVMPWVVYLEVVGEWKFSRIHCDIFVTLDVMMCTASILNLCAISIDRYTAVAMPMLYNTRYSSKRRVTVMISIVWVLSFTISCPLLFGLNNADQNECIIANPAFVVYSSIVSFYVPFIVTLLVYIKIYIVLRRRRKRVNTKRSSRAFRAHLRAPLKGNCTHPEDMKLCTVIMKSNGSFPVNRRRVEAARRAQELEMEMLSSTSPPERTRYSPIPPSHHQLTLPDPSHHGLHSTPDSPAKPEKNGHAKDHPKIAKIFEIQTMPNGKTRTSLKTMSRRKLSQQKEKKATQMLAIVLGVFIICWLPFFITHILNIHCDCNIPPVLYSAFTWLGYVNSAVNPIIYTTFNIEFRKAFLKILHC

Structure (SMILES) | Ki [1] [nM] | Ki [2, 3] [nM] | Ki ([2]; [3H]-Methylspiperone 1.2 nM) [nM]
C[C@@H](Oc1ccc2c(n1)CCN(CC[C@H]1CC[C@H](NC(=O)Cc3cnn(C)n3)CC1)CC2)C(F)(F)F [Example I-128] | 0.073 | 510 | 
Cc1nnc(CC(=O)N[C@H]2CC[C@H](CCN3CCc4ccc(O[C@H](C)C(F)(F)F)nc4CC3)CC2)s1 [Example I-129] | 0.085 | 290 | 
Cc1nc(CC(=O)N[C@H]2CC[C@H](CCN3CCc4ccc(O[C@H](C)C(F)(F)F)nc4CC3)CC2)nn1C [Example I-130] | 0.49 | 1200 | 
Cc1ncc(CC(=O)N[C@H]2CC[C@H](CCN3CCc4ccc(O[C@H](C)C(F)(F)F)nc4CC3)CC2)cn1 [Example I-131] | 0.35 | 410 | 
C[C@@H](Oc1ccc2c(n1)CCN(CC[C@H]1CC[C@H](NC(=O)c3cccc(=O)n3C)CC1)CC2)C(F)(F)F [Example I-132] | 0.12 | 300 | 
C[C@@H](Oc1ccc2c(n1)CCN(CC[C@H]1CC[C@H](NC(=O)COc3cnn(C)c3)CC1)CC2)C(F)(F)F [Example I-133] | 0.15 | 190 | 
Cc1cnc(CC(=O)N[C@H]2CC[C@](F)(CCN3CCc4ccc(CCC(F)(F)F)nc4CC3)CC2)o1 [Example I-141] | 0.41 | > 2300 | 
Cn1ncc(CC(=O)N[C@H]2CC[C@](F)(CCN3CCc4ccc(CCC(F)(F)F)nc4CC3)CC2)n1 [Example I-144] | 0.32 | 1500 | 
O=C(N[C@H]1CC[C@](F)(CCN2CCc3nc(OCC(F)(F)F)sc3CC2)CC1)c1cccnc1C(F)F [Example I-159] | 0.36 | 580 | 
O=C(N[C@H]1CC[C@](F)(CCN2CCc3nc(OCC(F)F)sc3CC2)CC1)c1cccnc1C(F)F [Example I-160] | 0.83 | 1100 | 
O=C(N[C@H]1CC[C@H](CCN2CCc3nc(OCC(F)F)sc3CC2)CC1)c1cccnc1C(F)F [Example I-161] | 0.32 | 940 | 
CC(F)(F)COc1nc2c(s1)CCN(CC[C@]1(F)CC[C@@H](NC(=O)c3cccnc3C(F)F)CC1)CC2 [Example I-162] | 0.56 | 740 | 
CC(F)(F)COc1nc2c(s1)CCN(CC[C@H]1CC[C@H](NC(=O)c3cccnc3C(F)F)CC1)CC2 [Example I-163] | 0.31 | 430 | 
O=C(N[C@H]1CC[C@H](CCN2CCc3nc(OC4CC(F)(F)C4)sc3CC2)CC1)c1cccnc1C(F)F [Example I-168] | 0.31 | 1000 | 
C[C@@H](Oc1ccc2c(n1)CCN(CC[C@]1(F)CC[C@@H](NC(=O)Cc3cnn(C)n3)CC1)CC2)C(F)(F)F [Example I-174] | 0.33 | 370 | 
Cc1nc(CC(=O)N[C@H]2CC[C@](F)(CCN3CCc4ccc(O[C@H](C)C(F)(F)F)nc4CC3)CC2)nn1C [Example I-180] | 0.85 | 850 | 
Cn1c(C(=O)NC23CCC(CCN4CCc5nc(OCC(F)(F)F)sc5CC4)(CC2)CC3)cccc1=O [II-1] | 0.17 |  | 830
CN1Cc2c(C(=O)NC34CCC(CCN5CCc6nc(OCC(F)(F)F)sc6CC5)(CC3)CC4)cccc2C1=O [II-2] | 0.079 |  | > 2200
O=C(NC12CCC(CCN3CCc4nc(OCC(F)(F)F)sc4CC3)(CC1)CC2)c1cccnc1C(F)F [II-3] | 0.29 |  | 1400
Cn1ncc(CC(=O)NC23CCC(CCN4CCc5nc(OCC(F)(F)F)sc5CC4)(CC2)CC3)n1 [II-4] | 0.16 |  | 1400
Cc1nnc(CC(=O)NC23CCC(CCN4CCc5nc(OCC(F)(F)F)sc5CC4)(CC2)CC3)o1 [II-5] | 0.2 |  | 1300
Cc1ncc(CC(=O)NC23CCC(CCN4CCc5nc(OCC(F)(F)F)sc5CC4)(CC2)CC3)cn1 [II-6] | 0.35 |  | 1200
Cc1ncccc1C(=O)NC12CCC(CCN3CCc4nc(OCC(F)(F)F)sc4CC3)(CC1)CC2 [II-7] | 0.39 |  | 1700
CN1Cc2c(C(=O)NC34CCC(CCN5CCc6nc(OCC(F)F)sc6CC5)(CC3)CC4)cccc2C1=O [II-10] | 0.5 |  | > 2300
Cc1ncccc1C(=O)NC12CCC(CCN3CCc4ccc(OCC(F)F)nc4CC3)(CC1)CC2 [II-13] | 0.56 |  | 2100

Structure (SMILES) | Ki [1] [nM] | Ki [2, 3] [nM] | Ki ([2]; [3H]-Methylspiperone 1.2 nM) [nM]
Cc1cnc(CC(=O)NC23CCC(CCN4CCc5ccc(OCC(C)(F)F)nc5CC4)(CC2)CC3)o1 [II-14] | 0.23 |  | 760
Cc1ncc(/C=C/C(=O)NC23CCC(CCN4CCc5nc(OCC(F)(F)F)sc5CC4)(CC2)CC3)cn1 [II-15] | 0.16 |  | 240
Cc1nnc(CC(=O)N[C@H]2CC[C@](F)(CCN3CCc4ccc(CCC(F)(F)F)nc4CC3)CC2)s1 [III-1] | 0.14 | > 2300 | 
Cc1nc(CC(=O)N[C@H]2CC[C@](F)(CCN3CCc4ccc(CCC(F)(F)F)nc4CC3)CC2)nn1C [III-2] | 0.16 | 1200 | 
Cc1cc(CC(=O)N[C@H]2CC[C@](F)(CCN3CCc4ccc(CCC(F)(F)F)nc4CC3)CC2)on1 [III-3] | 0.029 | > 2300 | 
Cc1nnc(CC(=O)N[C@H]2CC[C@H](CCN3CCc4nc(O[C@@H](C)C(F)(F)F)sc4CC3)CC2)o1 [III-4] | 0.16 | 780 | 
C[C@H](Oc1nc2c(s1)CCN(CC[C@H]1CC[C@H](NC(=O)c3cccc(=O)n3C)CC1)CC2)C(F)(F)F [III-5] | 0.23 | 1000 | 
C[C@H](Oc1nc2c(s1)CCN(CC[C@H]1CC[C@H](NC(=O)Cc3cnn(C)n3)CC1)CC2)C(F)(F)F [III-6] | 0.15 | 1600 | 
Cc1nnc(CC(=O)N[C@H]2CC[C@H](CCN3CCc4ccc(O[C@@H](C)C(F)(F)F)nc4CC3)CC2)o1 [III-7] | 0.09 | 290 | 
Cc1nnc(CC(=O)N[C@H]2CC[C@](F)(CCN3CCc4nc(OCC(F)(F)C(F)F)sc4CC3)CC2)o1 [III-8] | 0.16 | 480 | 
Cn1ncc(CC(=O)N[C@H]2CC[C@](F)(CCN3CCc4nc(OCC(F)(F)C(F)F)sc4CC3)CC2)n1 [III-9] | 0.081 | 770 | 
Cc1ncccc1C(=O)N[C@H]1CC[C@H](CCN2CCc3ccc(CCC(F)(F)F)nc3CC2)CC1 [I′-1] | 0.43 |  | 920
COc1cc(CC(=O)N[C@H]2CC[C@H](CCN3CCc4ccc(CCC(F)(F)F)nc4CC3)CC2)on1 [I′-2] | 0.21 |  | > 2300
Cc1nnc(CC(=O)N[C@H]2CC[C@H](CCN3CCc4ccc(CCC(F)(F)F)nc4CC3)CC2)o1 [I′-3] | 0.18 |  | 1100
Cn1cc(CC(=O)N[C@H]2CC[C@H](CCN3CCc4ccc(CCC(F)(F)F)nc4CC3)CC2)cn1 [I′-4] | 0.22 |  | 1200
Cn1c(C(=O)N[C@H]2CC[C@H](CCN3CCc4ccc(CCC(F)(F)F)nc4CC3)CC2)cccc1=O [I′-5] | 0.22 |  | 610
Cc1ncc(OCC(=O)N[C@H]2CC[C@H](CCN3CCc4ccc(CCC(F)(F)F)nc4CC3)CC2)cn1 [I′-7] | 0.12 |  | 1100
Cc1cc(OCC(=O)N[C@H]2CC[C@H](CCN3CCc4ccc(CCC(F)(F)F)nc4CC3)CC2)no1 [I′-8] | 0.071 |  | > 2300
Cn1cc2c(C(=O)N[C@H]3CC[C@H](CCN4CCc5ccc(CCC(F)(F)F)nc5CC4)CC3)ccc(F)c2n1 [I′-9] | 0.11 |  | 530
Cc1ncc(CC(=O)N[C@H]2CC[C@H](CCN3CCc4ccc(CCC(F)(F)F)nc4CC3)CC2)o1 [I′-10] | 0.23 |  | 1100
Cc1nc(CC(=O)N[C@H]2CC[C@H](CCN3CCc4ccc(CCC(F)(F)F)nc4CC3)CC2)no1 [I′-11] | 0.18 |  | 1200
Cc1nnc(CC(=O)N[C@H]2CC[C@H](CCN3CCc4ccc(CCC(F)(F)F)nc4CC3)CC2)s1 [I′-12] | 0.29 |  | 820
Cc1cnc(OCC(=O)N[C@H]2CC[C@H](CCN3CCc4ccc(CCC(F)(F)F)nc4CC3)CC2)cn1 [I′-13] | 0.43 |  | 910
Cc1nc(CC(=O)N[C@H]2CC[C@H](CCN3CCc4ccc(CCC(F)(F)F)nc4CC3)CC2)nn1C [I′-14] | 0.21 |  | > 2300
Cc1nc(CC(=O)N[C@H]2CC[C@H](CCN3CCc4ccc(CCC(F)(F)F)nc4CC3)CC2)n(C)n1 [I′-15] | 1.4 |  | 1700
